Laboratory results reported in ChEMBL document CHEMBL1909046, “DrugMatrix in vitro pharmacology data”.

target: Vascular endothelial growth factor receptor 1 (Homo sapiens, UniProt P17948); assay type: cell-based; conditions: huvec; also: in other assays of this panel Not Active means under 50% inhibition at 10 µM
Sequence (P17948 whole entry): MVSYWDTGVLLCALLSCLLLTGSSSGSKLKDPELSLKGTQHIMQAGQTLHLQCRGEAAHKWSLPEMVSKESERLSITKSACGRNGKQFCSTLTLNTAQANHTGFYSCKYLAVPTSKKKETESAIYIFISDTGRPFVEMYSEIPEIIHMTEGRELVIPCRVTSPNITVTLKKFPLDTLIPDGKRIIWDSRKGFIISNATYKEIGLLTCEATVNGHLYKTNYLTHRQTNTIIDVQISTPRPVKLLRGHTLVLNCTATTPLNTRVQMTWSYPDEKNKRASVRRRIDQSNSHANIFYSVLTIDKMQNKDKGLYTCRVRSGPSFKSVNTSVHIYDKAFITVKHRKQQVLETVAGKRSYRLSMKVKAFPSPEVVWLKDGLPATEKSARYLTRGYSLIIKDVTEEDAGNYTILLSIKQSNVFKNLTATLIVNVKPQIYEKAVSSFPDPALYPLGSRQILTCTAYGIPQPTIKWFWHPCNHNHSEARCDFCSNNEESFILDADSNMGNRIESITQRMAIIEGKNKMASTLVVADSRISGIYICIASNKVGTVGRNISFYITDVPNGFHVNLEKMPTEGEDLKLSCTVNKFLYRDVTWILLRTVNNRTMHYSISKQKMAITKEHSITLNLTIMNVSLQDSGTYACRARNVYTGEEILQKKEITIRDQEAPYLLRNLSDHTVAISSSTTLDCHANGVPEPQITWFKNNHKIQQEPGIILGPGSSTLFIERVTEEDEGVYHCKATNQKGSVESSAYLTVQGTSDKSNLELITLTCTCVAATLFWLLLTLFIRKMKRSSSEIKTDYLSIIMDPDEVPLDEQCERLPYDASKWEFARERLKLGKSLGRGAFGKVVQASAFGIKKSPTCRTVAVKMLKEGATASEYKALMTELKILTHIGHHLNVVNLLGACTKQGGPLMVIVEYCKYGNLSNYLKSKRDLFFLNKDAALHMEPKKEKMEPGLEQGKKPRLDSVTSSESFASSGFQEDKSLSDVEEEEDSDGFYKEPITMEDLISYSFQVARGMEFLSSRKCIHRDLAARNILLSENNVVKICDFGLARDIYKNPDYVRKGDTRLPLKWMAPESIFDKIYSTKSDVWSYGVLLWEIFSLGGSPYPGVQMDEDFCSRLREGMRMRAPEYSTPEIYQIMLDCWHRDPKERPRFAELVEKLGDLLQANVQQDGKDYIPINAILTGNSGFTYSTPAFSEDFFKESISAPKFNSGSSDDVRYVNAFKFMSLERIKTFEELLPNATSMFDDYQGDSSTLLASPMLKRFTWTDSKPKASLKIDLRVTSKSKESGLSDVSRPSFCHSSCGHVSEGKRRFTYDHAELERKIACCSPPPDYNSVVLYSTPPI

| Molecule | IC50 | Ki |
| --- | --- | --- |
| ClC1=C(Cl)[C@]2(Cl)[C@@H]3[C@@H]4C[C@@H]([C@H]5O[C@@H]45)[C@@H]3[C@@]1(Cl)C2(Cl)Cl [DIELDRIN] | Not Active | – |
| c1ccc(Cn2ccnc2)cc1 | Not Active | – |
| C[C@]12CC[C@@H](O)C[C@@H]1CC[C@@H]1[C@@H]2CC[C@]2(C)C(=O)CC[C@@H]12 [ANDROSTERONE] | Not Active | – |
| CC12CCC(CC1)C(C)(C)O2 [EUCALYPTOL] | Not Active | – |
| Nc1nc(N)c2nc(CNc3ccc(C(=O)N[C@@H](CCC(=O)O)C(=O)O)cc3)cnc2n1 [AMINOPTERIN] | Not Active | – |
| Nc1ccc(Cc2ccc(N)cc2)cc1 | Not Active | – |
| COc1ccccc1OCCNCC(O)COc1cccc2[nH]c3ccccc3c12 (stereo unspecified) [CARVEDILOL] | Not Active | – |
| CCN1CCN(c2cc3c(cc2F)c(=O)c(C(=O)O)cn3C2CC2)CC1 [ENROFLOXACIN] | Not Active | – |
| CC(C)Cc1ccc([C@H](C)C(=O)O)cc1 [DEXIBUPROFEN] | Not Active | – |
| O=C(O)CNCP(=O)(O)O [GLYPHOSATE] | Not Active | – |
| CO[C@H]1O[C@@H]2O[C@@]3(C)CC[C@H]4[C@H](C)CC[C@@H]([C@H]1C)[C@@]24OO3 | Not Active | – |
| Nc1ccc(C(=O)O)c(O)c1 [AMINOSALICYLIC ACID] | Not Active | – |
| Nc1nc(F)nc2c1ncn2[C@@H]1O[C@H](CO)[C@@H](O)[C@@H]1O [FLUDARABINE] | Not Active | – |
| CHROMIC CHLORIDE | Not Active | Not Active |

test system: not listed separately; assay: DRUGMATRIX: Nicotinic Acetylcholine radioligand binding (ligand: [125I] Epibatidine); assay type: cell membranes, Membrane; conditions: imr-32; Not Active = under 50% inhibition at 10 µM

| Molecule | IC50 | Ki |
| --- | --- | --- |
| ClC1=C(Cl)[C@]2(Cl)[C@@H]3[C@@H]4C[C@@H]([C@H]5O[C@@H]45)[C@@H]3[C@@]1(Cl)C2(Cl)Cl [DIELDRIN] | Not Active | Not Active |
| c1ccc(Cn2ccnc2)cc1 | Not Active | Not Active |
| C[C@]12CC[C@@H](O)C[C@@H]1CC[C@@H]1[C@@H]2CC[C@]2(C)C(=O)CC[C@@H]12 [ANDROSTERONE] | Not Active | Not Active |
| CC12CCC(CC1)C(C)(C)O2 [EUCALYPTOL] | Not Active | Not Active |
| Nc1nc(N)c2nc(CNc3ccc(C(=O)N[C@@H](CCC(=O)O)C(=O)O)cc3)cnc2n1 [AMINOPTERIN] | Not Active | Not Active |
| Nc1ccc(Cc2ccc(N)cc2)cc1 | Not Active | Not Active |
| COc1ccccc1OCCNCC(O)COc1cccc2[nH]c3ccccc3c12 (stereo unspecified) [CARVEDILOL] | Not Active | Not Active |
| CCN1CCN(c2cc3c(cc2F)c(=O)c(C(=O)O)cn3C2CC2)CC1 [ENROFLOXACIN] | Not Active | Not Active |
| CC(C)Cc1ccc([C@H](C)C(=O)O)cc1 [DEXIBUPROFEN] | Not Active | Not Active |
| O=C(O)CNCP(=O)(O)O [GLYPHOSATE] | Not Active | Not Active |
| CO[C@H]1O[C@@H]2O[C@@]3(C)CC[C@H]4[C@H](C)CC[C@@H]([C@H]1C)[C@@]24OO3 | Not Active | Not Active |
| Nc1ccc(C(=O)O)c(O)c1 [AMINOSALICYLIC ACID] | Not Active | Not Active |
| Nc1nc(F)nc2c1ncn2[C@@H]1O[C@H](CO)[C@@H](O)[C@@H]1O [FLUDARABINE] | Not Active | Not Active |
| CHROMIC CHLORIDE | Not Active | Not Active |

test system: not listed separately; assay: DRUGMATRIX: Leukotriene, BLT (LTB4) radioligand binding (ligand: [3H]LTB4); assay type: cell membranes, Membrane; conditions: u-937; Not Active = under 50% inhibition at 10 µM

| Molecule | IC50 | Ki |
| --- | --- | --- |
| ClC1=C(Cl)[C@]2(Cl)[C@@H]3[C@@H]4C[C@@H]([C@H]5O[C@@H]45)[C@@H]3[C@@]1(Cl)C2(Cl)Cl [DIELDRIN] | Not Active | Not Active |
| c1ccc(Cn2ccnc2)cc1 | Not Active | Not Active |
| C[C@]12CC[C@@H](O)C[C@@H]1CC[C@@H]1[C@@H]2CC[C@]2(C)C(=O)CC[C@@H]12 [ANDROSTERONE] | Not Active | Not Active |
| CC12CCC(CC1)C(C)(C)O2 [EUCALYPTOL] | Not Active | Not Active |
| Nc1nc(N)c2nc(CNc3ccc(C(=O)N[C@@H](CCC(=O)O)C(=O)O)cc3)cnc2n1 [AMINOPTERIN] | Not Active | Not Active |
| Nc1ccc(Cc2ccc(N)cc2)cc1 | Not Active | Not Active |
| COc1ccccc1OCCNCC(O)COc1cccc2[nH]c3ccccc3c12 (stereo unspecified) [CARVEDILOL] | Not Active | Not Active |
| CCN1CCN(c2cc3c(cc2F)c(=O)c(C(=O)O)cn3C2CC2)CC1 [ENROFLOXACIN] | Not Active | Not Active |
| CC(C)Cc1ccc([C@H](C)C(=O)O)cc1 [DEXIBUPROFEN] | Not Active | Not Active |
| O=C(O)CNCP(=O)(O)O [GLYPHOSATE] | Not Active | Not Active |
| CO[C@H]1O[C@@H]2O[C@@]3(C)CC[C@H]4[C@H](C)CC[C@@H]([C@H]1C)[C@@]24OO3 | Not Active | Not Active |
| Nc1ccc(C(=O)O)c(O)c1 [AMINOSALICYLIC ACID] | Not Active | Not Active |
| Nc1nc(F)nc2c1ncn2[C@@H]1O[C@H](CO)[C@@H](O)[C@@H]1O [FLUDARABINE] | Not Active | Not Active |
| CHROMIC CHLORIDE | Not Active | Not Active |

target: Sigma non-opioid intracellular receptor 1 (Homo sapiens, UniProt Q99720); assay: DRUGMATRIX: Sigma1 radioligand binding (ligand: [3H] Haloperidol); assay type: cell membranes, Jurkat, Membrane; conditions: jurkat; Not Active = under 50% inhibition at 10 µM
Sequence (Q99720 whole entry): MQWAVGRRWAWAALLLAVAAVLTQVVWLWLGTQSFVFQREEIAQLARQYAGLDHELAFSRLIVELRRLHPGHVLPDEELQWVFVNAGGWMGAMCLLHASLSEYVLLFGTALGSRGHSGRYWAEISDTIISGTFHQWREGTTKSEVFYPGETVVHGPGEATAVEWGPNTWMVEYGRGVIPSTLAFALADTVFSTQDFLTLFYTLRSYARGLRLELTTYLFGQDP

| Molecule | IC50 | Ki |
| --- | --- | --- |
| ClC1=C(Cl)[C@]2(Cl)[C@@H]3[C@@H]4C[C@@H]([C@H]5O[C@@H]45)[C@@H]3[C@@]1(Cl)C2(Cl)Cl [DIELDRIN] | Not Active | – |
| c1ccc(Cn2ccnc2)cc1 | Not Active | – |
| C[C@]12CC[C@@H](O)C[C@@H]1CC[C@@H]1[C@@H]2CC[C@]2(C)C(=O)CC[C@@H]12 [ANDROSTERONE] | Not Active | – |
| CC12CCC(CC1)C(C)(C)O2 [EUCALYPTOL] | Not Active | – |
| Nc1nc(N)c2nc(CNc3ccc(C(=O)N[C@@H](CCC(=O)O)C(=O)O)cc3)cnc2n1 [AMINOPTERIN] | Not Active | – |
| Nc1ccc(Cc2ccc(N)cc2)cc1 | Not Active | – |
| COc1ccccc1OCCNCC(O)COc1cccc2[nH]c3ccccc3c12 (stereo unspecified) [CARVEDILOL] | Not Active | – |
| CCN1CCN(c2cc3c(cc2F)c(=O)c(C(=O)O)cn3C2CC2)CC1 [ENROFLOXACIN] | Not Active | – |
| CC(C)Cc1ccc([C@H](C)C(=O)O)cc1 [DEXIBUPROFEN] | Not Active | – |
| O=C(O)CNCP(=O)(O)O [GLYPHOSATE] | Not Active | – |
| CO[C@H]1O[C@@H]2O[C@@]3(C)CC[C@H]4[C@H](C)CC[C@@H]([C@H]1C)[C@@]24OO3 | Not Active | – |
| Nc1ccc(C(=O)O)c(O)c1 [AMINOSALICYLIC ACID] | Not Active | – |
| Nc1nc(F)nc2c1ncn2[C@@H]1O[C@H](CO)[C@@H](O)[C@@H]1O [FLUDARABINE] | Not Active | – |
| CHROMIC CHLORIDE | Not Active | Not Active |

target: Matrix metalloproteinase-9 (Homo sapiens, UniProt P14780); assay type: cell-based; conditions: not given;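 also: inhibition of isolated MMP-9 enzyme activity toward a synthetic peptide substrate, from the DrugMatrix protease screening panel; in other assays of this panel Not Active means under 50% inhibition at 10 µM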
Sequence (P14780 whole entry): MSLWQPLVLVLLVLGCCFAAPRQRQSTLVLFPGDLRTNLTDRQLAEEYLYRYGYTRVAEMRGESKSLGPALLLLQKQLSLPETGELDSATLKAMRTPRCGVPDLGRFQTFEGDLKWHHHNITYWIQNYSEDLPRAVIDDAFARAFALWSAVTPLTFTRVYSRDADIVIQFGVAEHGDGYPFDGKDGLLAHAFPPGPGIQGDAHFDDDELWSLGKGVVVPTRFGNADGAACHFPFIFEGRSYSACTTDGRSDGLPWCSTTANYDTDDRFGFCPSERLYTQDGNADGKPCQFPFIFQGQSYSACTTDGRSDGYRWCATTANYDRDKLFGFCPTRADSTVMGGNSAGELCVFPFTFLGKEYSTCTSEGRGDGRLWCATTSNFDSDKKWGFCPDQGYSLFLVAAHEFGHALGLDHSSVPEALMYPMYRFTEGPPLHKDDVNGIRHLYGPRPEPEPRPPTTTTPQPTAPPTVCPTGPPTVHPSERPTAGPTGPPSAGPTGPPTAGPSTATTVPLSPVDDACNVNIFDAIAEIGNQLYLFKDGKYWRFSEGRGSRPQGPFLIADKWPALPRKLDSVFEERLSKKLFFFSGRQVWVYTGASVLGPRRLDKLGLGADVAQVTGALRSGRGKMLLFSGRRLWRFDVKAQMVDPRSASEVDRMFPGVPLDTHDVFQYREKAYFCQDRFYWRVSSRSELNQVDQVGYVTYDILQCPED

| Molecule | IC50 | Ki |
| --- | --- | --- |
| ClC1=C(Cl)[C@]2(Cl)[C@@H]3[C@@H]4C[C@@H]([C@H]5O[C@@H]45)[C@@H]3[C@@]1(Cl)C2(Cl)Cl [DIELDRIN] | Not Active | – |
| c1ccc(Cn2ccnc2)cc1 | Not Active | – |
| C[C@]12CC[C@@H](O)C[C@@H]1CC[C@@H]1[C@@H]2CC[C@]2(C)C(=O)CC[C@@H]12 [ANDROSTERONE] | – | Not Active |
| CC12CCC(CC1)C(C)(C)O2 [EUCALYPTOL] | Not Active | – |
| Nc1nc(N)c2nc(CNc3ccc(C(=O)N[C@@H](CCC(=O)O)C(=O)O)cc3)cnc2n1 [AMINOPTERIN] | Not Active | – |
| Nc1ccc(Cc2ccc(N)cc2)cc1 | Not Active | – |
| COc1ccccc1OCCNCC(O)COc1cccc2[nH]c3ccccc3c12 (stereo unspecified) [CARVEDILOL] | Not Active | – |
| CCN1CCN(c2cc3c(cc2F)c(=O)c(C(=O)O)cn3C2CC2)CC1 [ENROFLOXACIN] | Not Active | – |
| CC(C)Cc1ccc([C@H](C)C(=O)O)cc1 [DEXIBUPROFEN] | Not Active | – |
| O=C(O)CNCP(=O)(O)O [GLYPHOSATE] | Not Active | – |
| CO[C@H]1O[C@@H]2O[C@@]3(C)CC[C@H]4[C@H](C)CC[C@@H]([C@H]1C)[C@@]24OO3 | Not Active | – |
| Nc1ccc(C(=O)O)c(O)c1 [AMINOSALICYLIC ACID] | Not Active | – |
| Nc1nc(F)nc2c1ncn2[C@@H]1O[C@H](CO)[C@@H](O)[C@@H]1O [FLUDARABINE] | Not Active | – |
| CHROMIC CHLORIDE | Not Active | Not Active |

target: T1, Muscarinic acetylcholine receptor M4 (Homo sapiens, UniProt P08173); assay type: cell membranes, CHO-K1, Membrane; conditions: cho-k1; also: in other assays of this panel Not Active means under 50% inhibition at 10 µM
T1 sequence (P08173 whole entry): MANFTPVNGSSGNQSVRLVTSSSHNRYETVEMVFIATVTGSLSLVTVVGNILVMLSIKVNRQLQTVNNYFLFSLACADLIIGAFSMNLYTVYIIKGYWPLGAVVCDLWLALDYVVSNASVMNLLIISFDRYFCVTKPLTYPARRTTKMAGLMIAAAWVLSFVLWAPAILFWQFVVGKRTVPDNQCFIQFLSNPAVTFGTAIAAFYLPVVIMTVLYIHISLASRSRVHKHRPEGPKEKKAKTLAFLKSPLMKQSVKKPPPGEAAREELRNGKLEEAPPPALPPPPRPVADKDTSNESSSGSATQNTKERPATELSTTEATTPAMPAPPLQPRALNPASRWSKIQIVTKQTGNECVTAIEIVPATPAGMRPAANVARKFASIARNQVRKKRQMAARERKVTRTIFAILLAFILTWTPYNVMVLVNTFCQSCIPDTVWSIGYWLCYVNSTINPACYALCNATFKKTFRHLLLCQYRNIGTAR

| Molecule | IC50 | Ki |
| --- | --- | --- |
| ClC1=C(Cl)[C@]2(Cl)[C@@H]3[C@@H]4C[C@@H]([C@H]5O[C@@H]45)[C@@H]3[C@@]1(Cl)C2(Cl)Cl [DIELDRIN] | Not Active | – |
| c1ccc(Cn2ccnc2)cc1 | Not Active | – |
| C[C@]12CC[C@@H](O)C[C@@H]1CC[C@@H]1[C@@H]2CC[C@]2(C)C(=O)CC[C@@H]12 [ANDROSTERONE] | Not Active | – |
| CC12CCC(CC1)C(C)(C)O2 [EUCALYPTOL] | Not Active | – |
| Nc1nc(N)c2nc(CNc3ccc(C(=O)N[C@@H](CCC(=O)O)C(=O)O)cc3)cnc2n1 [AMINOPTERIN] | Not Active | – |
| Nc1ccc(Cc2ccc(N)cc2)cc1 | Not Active | – |
| COc1ccccc1OCCNCC(O)COc1cccc2[nH]c3ccccc3c12 (stereo unspecified) [CARVEDILOL] | Not Active | – |
| CCN1CCN(c2cc3c(cc2F)c(=O)c(C(=O)O)cn3C2CC2)CC1 [ENROFLOXACIN] | Not Active | – |
| CC(C)Cc1ccc([C@H](C)C(=O)O)cc1 [DEXIBUPROFEN] | Not Active | – |
| O=C(O)CNCP(=O)(O)O [GLYPHOSATE] | Not Active | – |
| CO[C@H]1O[C@@H]2O[C@@]3(C)CC[C@H]4[C@H](C)CC[C@@H]([C@H]1C)[C@@]24OO3 | Not Active | – |
| Nc1ccc(C(=O)O)c(O)c1 [AMINOSALICYLIC ACID] | Not Active | – |
| Nc1nc(F)nc2c1ncn2[C@@H]1O[C@H](CO)[C@@H](O)[C@@H]1O [FLUDARABINE] | Not Active | – |
| CHROMIC CHLORIDE | Not Active | Not Active |
